Reference: PubChem BioAssay AID1259408 (Genetic Toxicology Data Bank (GENE-TOX), 2018)
Calls of active or inactive are those of the source. The rule behind the calls is not given here.

Tested on: GENE-TOX genotoxicity assays, various organisms and cells
Experiment: GENE-TOX mutagenicity studies
Details: for call: Assay Type: In vivo carcinogenicity studies
[1] = Species/Cell Type: Chinese hamster lung (V79) cells, Assay Type: Forward gene mutation at the HPRT or ouabain locus, Assay Code: V79+, Evaluation Type: Evaluation A (Pre-1980)
[2] = Species/Cell Type: Human diploid fibroblasts, Assay Type: Unscheduled DNA synthesis (UDS) in vitro, DNA effects, Assay Code: UDHT, Evaluation Type: Evaluation A (Pre-1980)
[3] = Species/Cell Type: Nonhuman, Assay Type: Sister-chromatid exchange (SCE) in vitro, Assay Code: SC2+D, Dose Response: With dose response, Evaluation Type: Evaluation B (Post-1980)
[4] = Species/Cell Type: Salmonella typhimurium (one or more of the five standard strains: TA98, TA100, TA1535, TA1537, and TA1538), Assay Type: Histidine reverse gene mutation, Ames assay, Assay Code: SAL+, Evaluation Type: Evaluation A (Pre-1980)
[5] = Species/Cell Type: Schizosaccharomyces pombe, Assay Type: Reverse gene mutation, Assay Code: YEZ+, Evaluation Type: Evaluation A (Pre-1980)
[6] = Species/Cell Type: Nonhuman, Assay Code: CCG+, Evaluation Type: Evaluation A (Pre-1980)
[7] = Species/Cell Type: Salmonella typhimurium, Assay Type: Forward and reverse gene mutation, host-mediated assay, Assay Code: HMA+, Evaluation Type: Evaluation A (Pre-1980)
[8] = Species/Cell Type: Salmonella typhimurium (one or more of the five standard strains: TA98, TA100, TA1535, TA1537, and TA1538), Assay Type: Histidine reverse gene mutation, Ames assay, Assay Code: SAL+*, Activation: With metabolic activation, Evaluation Type: Evaluation A (Pre-1980)
[9] = Species/Cell Type: Drosophila melanogaster, Assay Type: Sex-linked recessive lethal gene mutation, Assay Code: SRLT, Evaluation Type: Evaluation A (Pre-1980)

c1ccc2c(c1)-c1cc3ccc4ccccc4c3cc1C1OC21 (centres undefined)
mutagenic call [1]: active; positive
mutagenic call [2]: no conclusion
mutagenic call (Species/Cell Type: Mouse prostate cells, Assay Type: Cell transformation, Assay Code: CTM+D, Dose Response: With dose response, Evaluation Type: Evaluation A (Pre-1980)): active; positive
call (Species/Cell Type: Nonhuman, Assay Code: CCG+L, Evaluation Type: Evaluation A (Pre-1980)): active; positive
mutagenic call [3]: active; positive
mutagenic call [4]: active; positive
mutagenic call (Species/Cell Type: Syrian hamster embryo (SHE) cells, Assay Type: Cell transformation, clonal assay, Assay Code: CTC+, Evaluation Type: Evaluation A (Pre-1980)): active; positive

CCOC(=O)N1CC1
mutagenic call [5]: active; positive

NCCCN1CC1
mutagenic call [5]: active; positive

OC(O)C(F)(F)F
mutagenic call (Species/Cell Type: Salmonella typhimurium (one or more of the five standard strains: TA98, TA100, TA1535, TA1537, and TA1538), Assay Type: Histidine reverse gene mutation, Ames assay, Assay Code: SALT, Evaluation Type: Evaluation A (Pre-1980)): no conclusion

O=C1CNCC(=O)N1C1CC1N1C(=O)CNCC1=O (centres undefined)
mutagenic call (Species/Cell Type: Chinese hamster lung (V79) cells, Assay Type: Forward gene mutation at the HPRT or ouabain locus, Assay Code: V79-, Evaluation Type: Evaluation A (Pre-1980)): inactive; negative

O=C1c2ccccc2C(=O)c2c1ccc(O)c2O
mutagenic call (Species/Cell Type: Allium cepa, Assay Type: Chromosome aberrations, Assay Code: ALC+, Evaluation Type: Evaluation A (Pre-1980)): active; positive
mutagenic call (Species/Cell Type: Bacillus subtilis (H17 vs M45), Assay Type: Rec-assay, spot test, DNA effects (bacterial DNA repair), Assay Code: REWT, Evaluation Type: Evaluation A (Pre-1980)): no conclusion

Cc1cc(=O)n(-c2ccccc2)n1C
mutagenic call (Species/Cell Type: Salmonella typhimurium (one or more of the five standard strains: TA98, TA100, TA1535, TA1537, and TA1538), Assay Type: Histidine reverse gene mutation, Ames assay, Assay Code: SAL-, Evaluation Type: Evaluation A (Pre-1980)): inactive; negative

CCNC1(c2ccccc2)CCCCC1
mutagenic call (Species/Cell Type: Syrian hamster embryo (SA7/SHE) cells, Assay Type: Cell transformation, viral enhanced, Assay Code: CT7+, Evaluation Type: Evaluation A (Pre-1980)): active; positive

CCCCCc1cc(O)c2c(c1)OC(C)(C)[C@@H]1CC=C(C)C[C@@H]21
mutagenic call (Species/Cell Type: Fischer rat embryo (RLV/1706) cells, Assay Type: Cell transformation, viral enhanced, Assay Code: CTR-, Evaluation Type: Evaluation A (Pre-1980)): inactive; negative
mutagenic call (Species/Cell Type: Human lymphocytes, Assay Type: Micronucleus test in vitro, chromosome aberrations, Assay Code: MN7+, Evaluation Type: Evaluation A (Pre-1980)): active; positive

c1cncc([C@@H]2CCCCN2)c1
mutagenic call (Species/Cell Type: Nonhuman, Assay Type: Sister-chromatid exchange (SCE) in vitro, Assay Code: SC2T, Evaluation Type: Evaluation B (Post-1980)): no conclusion

Clc1ccc(N=Nc2ccc(Cl)c(Cl)c2)cc1Cl
mutagenic call (Species/Cell Type: Aspergillus nidulans, Assay Type: Forward gene mutation, Assay Code: ASF+, Evaluation Type: Evaluation A (Pre-1980)): active; positive
mutagenic call (Species/Cell Type: Rat primary hepatocytes, Assay Type: Unscheduled DNA synthesis (UDS) in vitro, DNA effects, Assay Code: UDP+D, Dose Response: With dose response, Evaluation Type: Evaluation A (Pre-1980)): active; positive

CN=C1C=CC(=C(c2ccc(N(C)C)cc2)c2ccc(N(C)C)cc2)C=C1
mutagenic call (Species/Cell Type: Bacillus subtilis (H17 vs M45), Assay Type: Rec-assay, spot test, DNA effects (bacterial DNA repair), Assay Code: REW+, Evaluation Type: Evaluation A (Pre-1980)): active; positive
mutagenic call (Species/Cell Type: Bacillus subtilis (H17 vs M45T), Assay Type: Rec-assay, spot test, DNA effects (bacterial DNA repair), Assay Code: REXT, Evaluation Type: Evaluation A (Pre-1980)): no conclusion

[Cl][Tb]([Cl])[Cl]
mutagenic call (Species/Cell Type: Bacillus subtilis (H17 vs M45), Assay Type: Rec-assay, spot test, DNA effects (bacterial DNA repair), Assay Code: REW-, Evaluation Type: Evaluation A (Pre-1980)): inactive; negative

CCOP(=O)(N=C1SCC(C)S1)OCC (centres undefined)
mutagenic call (Species/Cell Type: Hordeum vulgare (barley), Assay Type: Chromosome aberrations, Assay Code: HOC+D, Dose Response: With dose response, Evaluation Type: Evaluation A (Pre-1980)): active; positive

O=c1[nH]cc(N(CCCl)CCCl)c(=O)[nH]1
mutagenic call (Species/Cell Type: Drosophila melanogaster, Assay Type: Sex-linked recessive lethal gene mutation, Assay Code: SRL+, Evaluation Type: Evaluation A (Pre-1980)): active; positive
mutagenic call (Species/Cell Type: Escherichia coli polA (W3119 vs P3478), Assay Type: Rec-assay, DNA effects (bacterial DNA repair), Assay Code: RE1+, Evaluation Type: Evaluation A (Pre-1980)): active; positive
mutagenic call (Species/Cell Type: Fischer rat embryo (RLV/1706) cells, Assay Type: Cell transformation, viral enhanced, Assay Code: CTR+, Evaluation Type: Evaluation A (Pre-1980)): active; positive
mutagenic call (Species/Cell Type: Mouse (BALB/c-3T3) cells, Assay Type: Cell transformation, Assay Code: CTB-, Evaluation Type: Evaluation A (Pre-1980)): inactive; negative
mutagenic call (Species/Cell Type: Mouse lymphoma (L5178Y) cells, Assay Type: Forward gene mutation at the thymidine kinase (TK) locus, chromosome aberrations, Assay Code: L51+, Evaluation Type: Evaluation A (Pre-1980)): active; positive
call [6]: active; positive
mutagenic call (Species/Cell Type: Saccharomyces cerevisiae, Assay Type: Mitotic recombination or gene conversion, Assay Code: YEH+, Evaluation Type: Evaluation A (Pre-1980)): active; positive
mutagenic call [4]: active; positive
mutagenic call [7]: active; positive

CCC(C)c1ccccc1OC(=O)N(C)N=O (centres undefined)
mutagenic call (Species/Cell Type: Bacillus subtilis (H17 vs M45T), Assay Type: Rec-assay, spot test, DNA effects (bacterial DNA repair), Assay Code: REX+, Evaluation Type: Evaluation A (Pre-1980)): active; positive
mutagenic call (Species/Cell Type: Escherichia coli WP2, Assay Type: Tryptophan reverse gene mutation, Assay Code: WP2+, Evaluation Type: Evaluation A (Pre-1980)): active; positive

O=S1(=O)CC=CC1
call (Species/Cell Type: Nonhuman, Assay Code: CCG-, Evaluation Type: Evaluation A (Pre-1980)): inactive; negative

CC(=O)Nc1ccc(-c2ccccc2)cc1
mutagenic call (Species/Cell Type: Human diploid fibroblasts, Assay Type: Unscheduled DNA synthesis (UDS) in vitro, DNA effects, Assay Code: UDH-, Evaluation Type: Evaluation A (Pre-1980)): inactive; negative

CC(C)(C)Br
mutagenic call (Species/Cell Type: Escherichia coli polA (W3119 vs P3478), Assay Type: Rec-assay, DNA effects (bacterial DNA repair), Assay Code: RE1-, Evaluation Type: Evaluation A (Pre-1980)): inactive; negative

CC1C=Cc2c1ccc1c2ccc2ccccc21 (centres undefined)
mutagenic call [8]: active; positive

Cc1c2ccncc2c(C)c2c1[nH]c1ccccc12
mutagenic call (Species/Cell Type: Chinese hamster ovary (CHO) cells, Assay Type: Forward gene mutation at the HPRT locus, Assay Code: CHO+, Evaluation Type: Evaluation B (Post-1980)): active; positive
mutagenic call (Species/Cell Type: Nonhuman, Assay Type: Sister-chromatid exchange (SCE) in vitro, Assay Code: SC2+, Evaluation Type: Evaluation B (Post-1980)): active; positive

CCCCN(CCCC)N=O
mutagenic call [1]: active; positive
mutagenic call (Species/Cell Type: Chinese hamster ovary (CHO) cells, Assay Type: Forward gene mutation at the HPRT locus, Assay Code: CHO+*, Activation: With metabolic activation, Evaluation Type: Evaluation B (Post-1980)): active; positive
mutagenic call [2]: no conclusion
mutagenic call (Species/Cell Type: Mammalian polychromatic erythrocytes, Assay Type: Micronucleus test, chromosome aberrations, Assay Code: MNTT, Evaluation Type: Evaluation A (Pre-1980)): no conclusion
mutagenic call (Species/Cell Type: Mouse, Sex: Male, Assay Type: Sperm morphology, Assay Code: SPI-, Evaluation Type: Evaluation A (Pre-1980)): inactive; negative
mutagenic call (Species/Cell Type: Nonhuman, Assay Type: Chromosome aberrations in vitro, Assay Code: CY&-, Evaluation Type: Evaluation A (Pre-1980)): inactive; negative
call [6]: active; positive
mutagenic call [3]: active; positive
mutagenic call (Species/Cell Type: Nonhuman, Assay Type: Sister-chromatid exchange (SCE) in vitro, Assay Code: SC2T, Evaluation Type: Evaluation A (Pre-1980)): no conclusion
mutagenic call (Species/Cell Type: Nonhuman, Assay Type: Sister-chromatid exchange (SCE) in vivo, Assay Code: SC3+, Evaluation Type: Evaluation B (Post-1980)): active; positive
mutagenic call [8]: active; positive

C=COC(N)=O
mutagenic call (Species/Cell Type: Human lymphocytes, Assay Type: Sister-chromatid exchange (SCE) in vitro, Assay Code: SCL+, Evaluation Type: Evaluation B (Post-1980)): active; positive
mutagenic call (Species/Cell Type: Human, Assay Type: Sister-chromatid exchange (SCE) in vitro, Assay Code: SC1+, Evaluation Type: Evaluation B (Post-1980)): active; positive
mutagenic call [3]: active; positive
mutagenic call (Species/Cell Type: Nonhuman, Assay Type: Sister-chromatid exchange (SCE) in vivo, Assay Code: SC3+D, Dose Response: With dose response, Evaluation Type: Evaluation B (Post-1980)): active; positive

COc1cc2c(c3oc(=O)c4c(c13)[C@@H](O)CC4=O)[C@@H]1C=CO[C@@H]1O2
mutagenic call [8]: active; positive

O=NN1CCNCC1
mutagenic call [7]: active; positive

BrCC(Br)CBr
mutagenic call [4]: active; positive

Nc1ccnc(=O)[nH]1
mutagenic call [9]: no conclusion

Cc1ccc(S(N)(=O)=O)cc1
mutagenic call [9]: no conclusion
mutagenic call (Species/Cell Type: Mammalian polychromatic erythrocytes, Assay Type: Micronucleus test, chromosome aberrations, Assay Code: MNTT, Evaluation Type: Evaluation B (Post-1980)): no conclusion

CCN(CCO)CCCNc1c2ccc(Cl)cc2nc2ccc(OC)nc12
mutagenic call (Species/Cell Type: Chinese hamster ovary (CHO) cells, Assay Type: Forward gene mutation at the HPRT locus, Assay Code: CHOT, Evaluation Type: Evaluation B (Post-1980)): no conclusion

CO[C@@]12[C@H](COC(N)=O)C3=C(C(=O)C(C)=C(N)C3=O)N1C[C@H]1[C@@H]2N1C (some centres undefined)
mutagenic call [3]: active; positive
